Laboratory results from ChEMBL document CHEMBL3244430, “Antitumor agents. 31. Helenalin sym-dimethylethylenediamine reaction products and related derivatives” (J Med Chem, 1978).

Columns and labels:
[1] = Cytotoxicity against human Hep2 cells assessed as growth inhibition by microtiter method; type: functional; conditions: HEp-2, read-out: ED50 (the source's name)
P388 [2] = test: Antitumor activity against mouse P388 cells allografted in DBA/2 mouse assessed as survival rate at 25 mg/kg relative to control; type: functional
W256 = test: Antitumor activity against rat Walker 256 cells allografted in Sprague-Dawley rat assessed as survival rate at 2.5 mg/kg relative to control; type: functional
P388 [3] = test: Antitumor activity against mouse P388 cells allografted in DBA/2 mouse assessed as survival rate at 10 mg/kg relative to control; type: functional
P388 [4] = test: Antitumor activity against mouse P388 cells allografted in DBA/2 mouse assessed as survival rate at 48 mg/kg relative to control; type: functional
[5] = Toxicity in DBA/2 mouse allografted with mouse P388 cells assessed as mortality after 4 days; type: organism-based; conditions: read-out: MNTD
[6] = Toxicity in Sprague-Dawley rat allografted with rat Walker 256 cells assessed as mortality after 4 days; type: organism-based; conditions: read-out: MNTD
P388 [7] = test: Antitumor activity against mouse P388 cells allografted in DBA/2 mouse assessed as survival rate at 16.8 mg/kg relative to control; type: functional
P388 [8] = test: Antitumor activity against mouse P388 cells allografted in DBA/2 mouse assessed as survival rate at 4 mg/kg relative to control; type: functional

C[C@@H]1C[C@@H](O)[C@@H]([C@H]2CN(C)CCN(C)C2=O)[C@H](O)[C@]2(C)C(=O)C=C[C@@H]12
EC50 [1]: 1.87 µg/mL
T/C (P388 [2]): 126%
T/C (W256): 170%

C[C@@H]1C[C@H]2OC(=O)C(CN(C)C)[C@H]2[C@H](O)[C@]2(C)C(=O)CC(N(C)C)[C@@H]12 (some centres undefined)
T/C (P388 [3]): 102%
EC50 [1]: 0.85 µg/mL
T/C (W256): 136%

C[C@@H]1C[C@H]2OC(=O)[C@@H](C)[C@H]2[C@H](O)[C@]2(C)C(=O)C=C[C@@H]12
EC50 [1]: 0.81 µg/mL
T/C (P388 [4]): 138%
T/C (W256): 207%

C[C@@H]1C[C@@H](OC(=O)/C=C/c2ccccc2)[C@@H](C2CN(C)CCN(C)C2=O)[C@H](O)[C@]2(C)C(=O)C=C[C@@H]12 (some centres undefined)
T/C (P388 [3]): 123%
EC50 [1]: 2.89 µg/mL

C[C@@H]1C[C@H]2OC(=O)C(CN(C)C)[C@H]2[C@H](O)[C@]2(C)C(=O)C=C[C@@H]12 (some centres undefined)
EC50 [1]: 0.6 µg/mL
T/C (P388 [2]): 130%

O=c1[nH]cc(F)c(=O)[nH]1 [FLUOROURACIL]
T/C (P388 [2]): 186%

C[C@@H]1C[C@@H](OC(=O)/C=C/c2ccccc2)[C@@H](C2CN(C)CCN(C)C2=O)[C@H](OC(=O)/C=C/c2ccccc2)[C@]2(C)C(=O)C=C[C@@H]12 (some centres undefined)
T/C (P388 [3]): 100%
EC50 [1]: 0.75 µg/mL
T/C (W256): 288%

C=C1C(=O)O[C@@H]2C[C@@H](C)[C@@H]3C=CC(=O)[C@@]3(C)[C@@H](OC(C)=O)[C@H]12 [ANGUSTIBALIN]
EC50 [1]: 0.29 µg/mL
T/C (P388 [2]): 78%

CC(=O)O[C@H]1[C@H](C2CN(C)CCN(C)C2=O)[C@H](OC(=O)/C=C/c2ccccc2)C[C@@H](C)[C@@H]2C=CC(=O)[C@]21C (some centres undefined)
EC50 [1]: 0.84 µg/mL
T/C (P388 [2]): 102%

C=C1C(=O)O[C@@H]2C[C@@H](C)[C@@H]3C=CC(=O)[C@@]3(C)[C@@H](O)[C@H]12 [HELENALIN]
MTD at 96 h [5]: 16.8 mg/kg
MTD at 96 h [6]: 2.5 mg/kg
EC50 [1]: 0.08 µg/mL
T/C (P388 [7]): 127%
T/C (W256): 316%

C[C@@H]1C[C@H]2OC(=O)C(CN(C)C)[C@H]2[C@H](O)[C@]2(C)C(O)CC[C@@H]12 (some centres undefined)
EC50 [1]: 3.69 µg/mL

CC(=O)O[C@H]1[C@H](C2CN(C)CCN(C)C2=O)[C@H](O)C[C@@H](C)[C@@H]2C=CC(=O)[C@]21C (some centres undefined)
EC50 [1]: 4.96 µg/mL
T/C (P388 [2]): 100%

C=C1C(=O)O[C@@H]2C[C@@H](C)[C@@H]3C=CC(=O)[C@@]3(C)[C@@H](OC(=O)/C=C/c3ccccc3)[C@H]12
EC50 [1]: 0.04 µg/mL
T/C (P388 [8]): 123%
T/C (W256): 157%

N[C@@H](Cc1ccc(N(CCCl)CCCl)cc1)C(=O)O [MELPHALAN]
T/C (P388 [2]): 168%
T/C (W256): 317%
